Values after ≈ are worked out from the molar mass of the structure shown.
What was measured:
[1] = cited from earlier work
[2] = deionized-water; cited from earlier work
[3] = tested on: DU-145; details: exposure time period of 72; previous study; read-out: reported IC50 of DXT; cited from earlier work
[4] = tested on: MCF-10A; assay: MTS cell viability / cytotoxicity on normal MCF-10A cells; assay type: cell-based, human; details: 1% v/v

For `CC(=O)O[C@@]12CO[C@@H]1C[C@H](O)[C@@]1(C)C(=O)[C@H](O)C3=C(C)[C@@H](OC(=O)[C@H](O)[C@@H](NC(=O)OC(C)(C)C)c4ccccc4)C[C@@](O)([C@@H](OC(=O)c4ccccc4)[C@H]21)C3(C)C` [native DXT, Docetaxel], the “log P” value [1] is given as 4.1, the solubility [2] is given as 11.75 µg/mL (≈ 14.5 µM) and the IC50 [3] is given as 8.2 nM.

With Triton X the “cytotoxicity of positive control” value [4] was “strongly cytotoxic”.
